In PubChem BioAssay AID248 (DTP/NCI, 2004):
Toxic doses and inconclusive results are not listed. Rule as the data show it: active = T/C of 150% or more; inactive = T/C below 125%.

Tested on: L1210 leukemia ip in BDF1 mice, survival T/C
Assay: NCI In Vivo Anticancer Drug Screen. Data for tumor model L1210 Leukemia (intraperitoneal) in B6D2F1 (BDF1) mice
Details: endpoint: mean survival time, higher = longer survival
Method in brief: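 Transplantable tumor model; survival measured in treated vs vehicle control mice. Value = treated/control.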

[1] = dose: 100.0 mg/kg/injection, schedule: Q04DX003 (ip), vehicle: Klucel (hydroxypropylcellulose) (HPC)
[2] = dose: 200.0 mg/kg/injection, schedule: Q04DX003 (ip), vehicle: Klucel (hydroxypropylcellulose) (HPC)

Measured: T/C

CC(C)[C@](O)(C(=O)OCC1=CC[N+]2([O-])CC[C@@H](O)[C@@H]12)[C@H](C)O (some centres undefined)
inactive: dose: 6.2 mg/kg/injection, schedule: Q01DX009 (ip), vehicle: water 96 % of control | dose: 8.0 mg/kg/injection, schedule: Q03HX024 (ip), vehicle: water 91 % of control | dose: 12.5 mg/kg/injection, schedule: Q01DX009 (ip), vehicle: water 96 % of control | dose: 16.0 mg/kg/injection, schedule: Q03HX008 (ip), vehicle: water 101 % of control | dose: 16.0 mg/kg/injection, schedule: Q03HX016 (ip), vehicle: water 101 % of control | dose: 16.0 mg/kg/injection, schedule: Q03HX024 (ip), vehicle: water 96 % of control | dose: 25.0 mg/kg/injection, schedule: Q01DX009 (ip), vehicle: saline 90 % of control | dose: 25.0 mg/kg/injection, schedule: Q01DX009 (ip), vehicle: water 98 % of control | dose: 32.0 mg/kg/injection, schedule: Q03HX008 (ip), vehicle: water 99 % of control | dose: 32.0 mg/kg/injection, schedule: Q03HX016 (ip), vehicle: water 94 % of control | dose: 32.0 mg/kg/injection, schedule: Q03HX024 (ip), vehicle: water 95 % of control | dose: 50.0 mg/kg/injection, schedule: Q01DX009 (ip), vehicle: saline 93 % of control | dose: 50.0 mg/kg/injection, schedule: Q01DX009 (ip), vehicle: water 123 % of control | dose: 64.0 mg/kg/injection, schedule: Q01DX009 (ip), vehicle: saline 99 % of control | dose: 64.0 mg/kg/injection, schedule: Q01DX009 (ip), vehicle: water 97 % of control | dose: 64.0 mg/kg/injection, schedule: Q03HX008 (ip), vehicle: water 97 % of control | dose: 64.0 mg/kg/injection, schedule: Q03HX016 (ip), vehicle: water 94 % of control | dose: 64.0 mg/kg/injection, schedule: Q03HX024 (ip), vehicle: water 99 % of control | dose: 64.0 mg/kg/injection, schedule: Q04DX003 (ip), vehicle: water 97 % of control | dose: 100.0 mg/kg/injection, schedule: Q01DX009 (ip), vehicle: saline 96 % of control | dose: 100.0 mg/kg/injection, schedule: Q01DX009 (ip), vehicle: water 110 % of control | dose: 100.0 mg/kg/injection, schedule: Q04DX002 (ip), vehicle: saline 104 % of control | dose: 128.0 mg/kg/injection, schedule: Q01DX001 (ip), vehicle: water 98 % of control | dose: 128.0 mg/kg/injection, schedule: Q01DX009 (ip), vehicle: saline 103 % of control | dose: 128.0 mg/kg/injection, schedule: Q01DX009 (ip), vehicle: water 108 % of control | dose: 128.0 mg/kg/injection, schedule: Q01DX009 (sc), vehicle: water 95 % of control | dose: 128.0 mg/kg/injection, schedule: Q03HX008 (ip), vehicle: water 101 % of control | dose: 128.0 mg/kg/injection, schedule: Q03HX016 (ip), vehicle: water 99 % of control | dose: 128.0 mg/kg/injection, schedule: Q03HX024 (ip), vehicle: water 110 % of control | dose: 128.0 mg/kg/injection, schedule: Q04DX003 (ip), vehicle: water 105 % of control | dose: 128.0 mg/kg/injection, schedule: Q08DX002 (ip), vehicle: water 95 % of control | dose: 200.0 mg/kg/injection, schedule: Q01DX009 (ip), vehicle: water 117 % of control | dose: 200.0 mg/kg/injection, schedule: Q04DX002 (ip), vehicle: saline 123 % of control | dose: 256.0 mg/kg/injection, schedule: Q01DX001 (ip), vehicle: water 99 % of control | dose: 256.0 mg/kg/injection, schedule: Q01DX009 (ip), vehicle: saline 101 % of control | dose: 256.0 mg/kg/injection, schedule: Q01DX009 (ip), vehicle: water 117 % of control | dose: 256.0 mg/kg/injection, schedule: Q01DX009 (oral), vehicle: water 103 % of control | dose: 256.0 mg/kg/injection, schedule: Q01DX009 (sc), vehicle: water 97 % of control | dose: 256.0 mg/kg/injection, schedule: Q03HX008 (ip), vehicle: water 94 % of control | dose: 256.0 mg/kg/injection, schedule: Q04DX003 (ip), vehicle: water 100 % of control | dose: 256.0 mg/kg/injection, schedule: Q08DX002 (ip), vehicle: water 101 % of control | dose: 400.0 mg/kg/injection, schedule: Q01DX009 (ip), vehicle: saline 98 % of control | dose: 400.0 mg/kg/injection, schedule: Q04DX002 (ip), vehicle: saline 120 % of control | dose: 512.0 mg/kg/injection, schedule: Q01DX001 (ip), vehicle: water 101 % of control | dose: 512.0 mg/kg/injection, schedule: Q01DX009 (ip), vehicle: water 105 % of control | dose: 512.0 mg/kg/injection, schedule: Q01DX009 (oral), vehicle: water 94 % of control | dose: 512.0 mg/kg/injection, schedule: Q01DX009 (sc), vehicle: water 104 % of control | dose: 512.0 mg/kg/injection, schedule: Q04DX003 (ip), vehicle: water 100 % of control | dose: 512.0 mg/kg/injection, schedule: Q08DX002 (ip), vehicle: water 110 % of control | dose: 800.0 mg/kg/injection, schedule: Q01DX009 (ip), vehicle: saline 111 % of control | dose: 1024.0 mg/kg/injection, schedule: Q01DX001 (ip), vehicle: water 111 % of control | dose: 1024.0 mg/kg/injection, schedule: Q01DX009 (ip), vehicle: saline 104 % of control | dose: 1024.0 mg/kg/injection, schedule: Q01DX009 (oral), vehicle: water 108 % of control | dose: 1024.0 mg/kg/injection, schedule: Q04DX003 (ip), vehicle: water 119 % of control | dose: 1024.0 mg/kg/injection, schedule: Q08DX002 (ip), vehicle: water 117 % of control

O=[N+]([O-])c1ccc(/C=C/c2nnc(/C=C/c3ccc([N+](=O)[O-])cc3)o2)cc1
inactive: dose: 50.0 mg/kg/injection, schedule: Q04DX002 (ip), vehicle: saline with Tween-80 100 % of control | dose: 100.0 mg/kg/injection, schedule: Q04DX002 (ip), vehicle: saline with Tween-80 89 % of control | dose: 200.0 mg/kg/injection, schedule: Q04DX002 (ip), vehicle: saline with Tween-80 92 % of control | dose: 400.0 mg/kg/injection, schedule: Q04DX002 (ip), vehicle: saline with Tween-80 100 % of control

Cc1ccc(NC(=O)N2CCN(c3ccccc3)CC2)c([N+](=O)[O-])c1
inactive: [1] 96 % of control | [2] 102 % of control | dose: 400.0 mg/kg/injection, schedule: Q04DX003 (ip), vehicle: Klucel (hydroxypropylcellulose) (HPC) 91 % of control

c1ccc(C2C(c3ccccc3)N2C23CC4CC(CC(C4)C2)C3)cc1 (centres undefined)
inactive: [1] 88 % of control | [2] 94 % of control
